The record followed here is PubChem BioAssay (NCI).

Test systems include HS 578T breast; HOP-92 NSCLC; MOLT-4 leukemia; SF-295 CNS; SK-MEL-28 melanoma; NCI-H522 lung; SK-MEL-2 melanoma; OVCAR-3 ovarian; T-47D breast; MALME-3M melanoma.
Holding throughout (test): inhibition of tumour cell growth, NCI panel, 48 h

“And” between values parts separate entries of the source, which are not always exact repeats. Equal values may be shown once.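 The compound was tested at five concentrations on cells cultured in 96-well plates, with a 48-hour exposure period. Here, GI50 denotes the concentration required for 50% inhibition of growth. TGI: total growth inhibition.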

For the compound `O=C(Nc1ccc(Oc2ccc3nc(NC(=O)c4ccccc4)[nH]c3c2)cc1)Nc1cc(C(F)(F)F)ccc1F`, the GI50 in the assay with HS 578T breast is 1.07 µM; with HOP-92 NSCLC, 0.887 µM; in the assay with MOLT-4 leukemia it was 0.68 µM; with SF-295 CNS, 0.71 µM; in the assay with SK-MEL-28 melanoma it was 1.61 µM; in the assay on NCI-H522 lung, 1.6 µM. The GI50 in the assay on SK-MEL-2 melanoma is 0.832 µM; in the assay on OVCAR-3 ovarian it was 1.04 µM; in the assay with T-47D breast it was 0.783 µM; in the assay with MALME-3M melanoma, 1.3 µM. Moreover, the TGI in the assay on HS 578T breast was 11.6 µM; with HOP-92 NSCLC, 8.81 µM; with MOLT-4 leukemia, 3.83 µM; with SF-295 CNS, 4.49 µM; with SK-MEL-28 melanoma, 12.9 µM; with NCI-H522 lung, > 14.9 µM. In addition, the TGI with SK-MEL-2 melanoma stood at 3.63 µM; with OVCAR-3 ovarian, 6.12 µM; in the assay with T-47D breast, 3.17 µM; with MALME-3M melanoma, 11.9 µM.
Turning to `O=P(NC12CC3CC(CC(C3)C1)C2)(N1CC1)N1CC1`, the TGI with HS 578T breast was > 100 µM; in the assay with HOP-92 NSCLC, > 100 µM; in the assay with MOLT-4 leukemia it was > 43.2 µM; with SF-295 CNS, > 100 µM; in the assay with SK-MEL-28 melanoma, > 100 µM; with NCI-H522 lung it was > 100 µM. Besides, the TGI in the assay with SK-MEL-2 melanoma, with OVCAR-3 ovarian, with T-47D breast and with MALME-3M melanoma was > 100 µM throughout.
With `CN(C)c1ncnc2c1nnn2C1OC(CO)C(O)C1O` (stereo unspecified), the GI50 is 0.632 µM with HS 578T breast; 0.186 µM with HOP-92 NSCLC; 0.0635 µM in the assay with MOLT-4 leukemia; 0.221 µM with SF-295 CNS; 0.404 µM with SK-MEL-28 melanoma; 0.272 µM in the assay on NCI-H522 lung. Moreover, the GI50 with SK-MEL-2 melanoma is 0.104 µM; in the assay with OVCAR-3 ovarian it was 0.308 µM; in the assay with T-47D breast, 0.141 µM; in the assay on MALME-3M melanoma, 0.332 µM. Further, the TGI was > 100 µM with HS 578T breast; 1.23 µM with HOP-92 NSCLC; > 100 µM in the assay on MOLT-4 leukemia; > 58.3 µM in the assay with SF-295 CNS; > 85.2 µM in the assay with SK-MEL-28 melanoma; 1.41 µM in the assay on NCI-H522 lung. The TGI in the assay with SK-MEL-2 melanoma was determined as 0.773 µM; in the assay with OVCAR-3 ovarian, 2.46 µM; in the assay on T-47D breast, 2.81 µM; in the assay on MALME-3M melanoma, 63.5 µM.
For the compound `CN(N=O)C(=O)N[C@@H](C=O)[C@@H](O)[C@H](O)[C@H](O)CO`, the TGI in the assay with HS 578T breast was > 750 µM; in the assay with HOP-92 NSCLC it was 621 µM and > 750 µM; in the assay on MOLT-4 leukemia, 574 µM and > 750 µM; in the assay on SF-295 CNS, 621 µM and > 750 µM; in the assay with SK-MEL-28 melanoma, > 750 µM; in the assay with NCI-H522 lung it was 646 µM and > 750 µM. The TGI in the assay with SK-MEL-2 melanoma was > 750 µM; with OVCAR-3 ovarian, 670 µM; in the assay on T-47D breast, > 750 µM; in the assay on MALME-3M melanoma, 657 µM and > 750 µM. The GI50 with HOP-92 NSCLC, in the assay with MOLT-4 leukemia, in the assay on SF-295 CNS, in the assay with SK-MEL-28 melanoma, in the assay with NCI-H522 lung and in the assay with SK-MEL-2 melanoma was > 750 µM throughout. The GI50 in the assay on MALME-3M melanoma was > 750 µM.
With `COc1ccc(C2=NN(C(=O)c3cc(OC)c(OC)c(OC)c3)C(c3ccc(Cl)cc3)C2)cc1OC` (stereo unspecified), the GI50 in the assay with HS 578T breast was 3.59 µM; in the assay on MOLT-4 leukemia, 2.73 µM; with SF-295 CNS, 0.565 µM; in the assay on SK-MEL-28 melanoma, 1.65 µM; with NCI-H522 lung, 1.48 µM; in the assay on SK-MEL-2 melanoma it was 3.71 µM. The GI50 is 0.464 µM in the assay on OVCAR-3 ovarian, 3.59 µM with T-47D breast and 3.95 µM with MALME-3M melanoma. Moreover, the TGI with HS 578T breast is > 42.4 µM; with HOP-92 NSCLC, 5.41 µM; in the assay with MOLT-4 leukemia, > 100 µM; in the assay with SF-295 CNS, > 100 µM; in the assay with SK-MEL-28 melanoma it was > 55.9 µM; in the assay on NCI-H522 lung, > 24.3 µM. The TGI with SK-MEL-2 melanoma was 63.6 µM; in the assay on OVCAR-3 ovarian, 1.71 µM; in the assay with T-47D breast, > 100 µM; with MALME-3M melanoma, 98.9 µM.
For the compound `CC(=O)c1cc2c(cc1Nc1c3ccccc3nc3occ(Cl)c13)OCO2`, the GI50 in the assay with HS 578T breast is 0.109 µM; in the assay on HOP-92 NSCLC, 12.7 µM; in the assay with MOLT-4 leukemia, 0.198 µM; with SF-295 CNS, 0.0402 µM; in the assay with SK-MEL-28 melanoma it was 0.541 µM; in the assay with NCI-H522 lung it was 0.0402 µM. Besides, the values for the GI50 with OVCAR-3 ovarian and in the assay on MALME-3M melanoma were 0.0725 µM and 0.0796 µM, respectively. Besides, the TGI was > 69.6 µM in the assay with HS 578T breast; > 100 µM with HOP-92 NSCLC; > 100 µM with MOLT-4 leukemia; 0.188 µM in the assay on SF-295 CNS; > 100 µM in the assay on SK-MEL-28 melanoma; 1.46 µM with NCI-H522 lung. In addition, the TGI in the assay on SK-MEL-2 melanoma was > 100 µM; with OVCAR-3 ovarian, 0.178 µM; with T-47D breast it was > 100 µM; with MALME-3M melanoma, 0.45 µM.
As to `COc1cc2nccc(Oc3ccc(NC(=O)C4(C(=O)Nc5ccc(F)cc5)CC4)cc3)c2cc1Oc1ccc(N)cn1`, the GI50 was 1.65 µM with HS 578T breast; 0.0492 µM in the assay on HOP-92 NSCLC; 3.12 µM in the assay with MOLT-4 leukemia; 0.254 µM with SF-295 CNS; 2.56 µM with SK-MEL-28 melanoma; 2.25 µM in the assay on NCI-H522 lung. Moreover, the GI50 in the assay with SK-MEL-2 melanoma was 2.5 µM; in the assay with OVCAR-3 ovarian it was 3.68 µM; in the assay with T-47D breast, 1.91 µM; in the assay on MALME-3M melanoma, 2.09 µM. Also, the TGI in the assay with HS 578T breast was 7.39 µM; with HOP-92 NSCLC it was 3.03 µM; in the assay with MOLT-4 leukemia, > 100 µM; in the assay with SF-295 CNS, 4.28 µM; with SK-MEL-28 melanoma it was 32 µM; with NCI-H522 lung it was 12.7 µM. In addition, the TGI is 6.52 µM with SK-MEL-2 melanoma, > 100 µM in the assay on OVCAR-3 ovarian, 9.91 µM with T-47D breast and 8.52 µM with MALME-3M melanoma.
Regarding `O=c1c2ccccc2n2n1CC(O)C2` (stereo unspecified), the GI50 with HS 578T breast and in the assay on T-47D breast was > 100 µM throughout. Also, the TGI in the assay on HS 578T breast, with HOP-92 NSCLC, with MOLT-4 leukemia, in the assay with SF-295 CNS, with SK-MEL-28 melanoma and with NCI-H522 lung was > 100 µM each time. The TGI with SK-MEL-2 melanoma, in the assay with OVCAR-3 ovarian, with T-47D breast and in the assay with MALME-3M melanoma was > 100 µM each time.
In the case of `CN(C)c1ccc(/C=C2\N=C(c3ccc([N+](=O)[O-])cc3)OC2=O)cc1`, the TGI in the assay with HS 578T breast was > 100 µM; in the assay on HOP-92 NSCLC, 97 µM; with MOLT-4 leukemia it was > 100 µM; in the assay with SF-295 CNS, > 100 µM; with SK-MEL-28 melanoma it was > 100 µM; in the assay on NCI-H522 lung, > 100 µM. The TGI with SK-MEL-2 melanoma, in the assay with OVCAR-3 ovarian, in the assay with T-47D breast and in the assay on MALME-3M melanoma was > 100 µM in each case.
